In publication PMC11502375, “Cytochrome P450 VvCYP76F14 dominates the production of wine bouquet precursors in wine grapes” (Frontiers in Plant Science, 2024):

Key:
[1] = target: T1, VvCYP76F14 ('Marselan', Aromatic type) (Vitis vinifera, UniProt A0A1B2ZBX8); test: substrate depletion by HPLC-HRMS; format: biochemical; settings: 1 mM NADPH; ATR1 reductase; pH 5.0; 25 °C; 1 h
T1 construct: 499 residues; natural allele, versus Yanniang No.2: N46S/N111K/R175Q/L222V/M264I/S286N/L298V/K325T/E378G/T380A/E383D/T386A; MBP fusion in E. coli, MBP cut off with TEV protease; reductase partner Arabidopsis ATR1
T1 sequence (A0A1B2ZBX8 entry or part of it): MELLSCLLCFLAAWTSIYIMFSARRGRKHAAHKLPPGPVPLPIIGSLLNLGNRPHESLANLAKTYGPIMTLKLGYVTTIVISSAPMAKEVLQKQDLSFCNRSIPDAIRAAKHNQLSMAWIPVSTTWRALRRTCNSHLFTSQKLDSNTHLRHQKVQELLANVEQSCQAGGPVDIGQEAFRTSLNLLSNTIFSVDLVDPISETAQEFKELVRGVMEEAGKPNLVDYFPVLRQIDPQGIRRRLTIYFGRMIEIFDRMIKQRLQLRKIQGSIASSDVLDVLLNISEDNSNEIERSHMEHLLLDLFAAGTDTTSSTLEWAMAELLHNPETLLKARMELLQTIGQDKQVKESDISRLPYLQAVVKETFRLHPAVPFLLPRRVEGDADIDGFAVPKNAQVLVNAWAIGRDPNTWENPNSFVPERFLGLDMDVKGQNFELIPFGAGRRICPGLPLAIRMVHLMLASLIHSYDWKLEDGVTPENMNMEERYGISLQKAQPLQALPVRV

[2] = target: VvCYP76F14 ('Yanniang No.2', Full-Bodied type) (Vitis vinifera, UniProt A0A1B2ZBX8, I173L, form not given); settings: 1 mM NADPH; ATR1 reductase (VvCYP76F14:ATR1 2:1); 100 mM Na+/K+ phosphate pH 5.0; 25 °C; 1 h
Sequence of VvCYP76F14 ('Yanniang No.2', Full-Bodied type) (Vitis vinifera, UniProt A0A1B2ZBX8, I173L, form not given) (A0A1B2ZBX8 entry or part of it I173L, form open): as the sequence (A0A1B2ZBX8 entry or part of it) above, with I173L counted along it

[3] = target: VvCYP76F14 ('Yanniang No.2', Full-Bodied type) (Vitis vinifera, UniProt A0A1B2ZBX8, L351V, form not given); settings: 1 mM NADPH; ATR1 reductase (VvCYP76F14:ATR1 2:1); 100 mM Na+/K+ phosphate pH 5.0; 25 °C; 1 h
Sequence of VvCYP76F14 ('Yanniang No.2', Full-Bodied type) (Vitis vinifera, UniProt A0A1B2ZBX8, L351V, form not given) (A0A1B2ZBX8 entry or part of it L351V, form open): as the sequence (A0A1B2ZBX8 entry or part of it) above, with L351V counted along it

[4] = target: VvCYP76F14 ('Yanniang No.2', Full-Bodied type) (Vitis vinifera, UniProt A0A1B2ZBX8); settings: 1 mM NADPH; ATR1 reductase (VvCYP76F14:ATR1 2:1); 100 mM Na+/K+ phosphate pH 5.0; 25 °C; 1 h
Sequence of VvCYP76F14 ('Yanniang No.2', Full-Bodied type) (Vitis vinifera, UniProt A0A1B2ZBX8) (A0A1B2ZBX8 entry or part of it): as the sequence (A0A1B2ZBX8 entry or part of it) above

[5] = target: VvCYP76F14 ('Yanniang No.2', Full-Bodied type) (Vitis vinifera, UniProt A0A1B2ZBX8, E431G, form not given); settings: 1 mM NADPH; ATR1 reductase (VvCYP76F14:ATR1 2:1); 100 mM Na+/K+ phosphate pH 5.0; 25 °C; 1 h
Sequence of VvCYP76F14 ('Yanniang No.2', Full-Bodied type) (Vitis vinifera, UniProt A0A1B2ZBX8, E431G, form not given) (A0A1B2ZBX8 entry or part of it E431G, form open): as the sequence (A0A1B2ZBX8 entry or part of it) above, with E431G counted along it

| Km [2] [µM] | Km [3] [µM] | Km [4] [µM] | Km [5] [µM] | Compound | specific activity [1] |
| --- | --- | --- | --- | --- | --- |
| 76.7 ± 7.22 | 30.6 ± 2.85 | 29.1 ± 2.66 | 65 ± 6.98 | C=CC(C)(O)CC/C=C(\C)CO (centres unmarked) [(E)-8-hydroxylinalool] | (E)-8-hydroxylinalool (dehydrogenation), and (E)-8-oxolinalool (carboxylation) as substrates |
| 151 ± 14.6 | 67.6 ± 6.94 | 66.2 ± 5.63 | 144 ± 15.6 | C=CC(C)(O)CCC=C(C)C (centres unmarked) [linalool] | All three VvCYP76F14s demonstrated catalytic activity in reactions utilizing linalool (hydroxylation) |
| 90.8 ± 12.2 | 41.9 ± 5.24 | 41.4 ± 3.93 | 88.5 ± 9.85 | C=CC(C)(O)CC/C=C(\C)C=O (centres unmarked) [(E)-8-oxolinalool] |  |
